Values joined by “and” are separate entries in the source; they are usually repeats but may differ in a detail not shown here. Identical values can stand only once.
Columns and labels:
Experiment in all cases: Caliper, Mobility shift assay off-chip
CDK3 (human) = CDK3 (human) (UniProt Q00526)
CDK6 (human) = CDK6 (human) (UniProt Q00534)
CLK2 (human) = CLK2 (human) (UniProt P49760)
CSNK1D (human) = CSNK1D (human) (UniProt P48730)
CSNK1G2 (human) = CSNK1G2 (human) (UniProt P78368)
CSNK2A1 (human) = CSNK2A1 (human) (UniProt P68400)
CSNK2A2 (human) = CSNK2A2 (human) (UniProt P19784)
DCLK2 (human) = DCLK2 (human) (UniProt Q8N568)
EPHA7 (human) = EPHA7 (human) (UniProt Q15375)
FLT4 (human) = FLT4 (human) (UniProt P35916)
HIPK1 (human) = HIPK1 (human) (UniProt Q86Z02)
HIPK4 (human) = HIPK4 (human) (UniProt Q8NE63)
IKBKE (human) = IKBKE (human) (UniProt Q14164)
JAK2 JH1 JH2 (human) = JAK2 JH1 JH2 (human) (UniProt O60674)
LTK (human) = LTK (human) (UniProt P29376)
LYN (human) = LYN (human) (UniProt P07948)
MUSK (human) = MUSK (human) (UniProt O15146)
NEK2 (human) = NEK2 (human) (UniProt P51955)
NEK4 (human) = NEK4 (human) (UniProt P51957)
NEK9 (human) = NEK9 (human) (UniProt Q8TD19)
PBK (human) = PBK (human) (UniProt Q96KB5)
PRKCZ (human) = PRKCZ (human) (UniProt Q05513)
PTK2 (human) = PTK2 (human) (UniProt Q05397)
PTK6 (human) = PTK6 (human) (UniProt Q13882)
RPS6KA4 KD1 KD2 (human) = RPS6KA4 KD1 KD2 (human) (UniProt O75676)
RPS6KA5 KD1 KD2 (human) = RPS6KA5 KD1 KD2 (human) (UniProt O75582)
SGK3 (human) = SGK3 (human) (UniProt Q96BR1)
SIK2 (human) = SIK2 (human) (UniProt Q9H0K1)
SYK (human) = SYK (human) (UniProt P43405)
TNK2 (human) = TNK2 (human) (UniProt Q07912)
TXK (human) = TXK (human) (UniProt P42681)
CSF1R (human) = CSF1R (human) (UniProt P07333)
DDR2 (human) = DDR2 (human) (UniProt Q16832)

Chain of TXK (human) (P42681 whole entry, looked up): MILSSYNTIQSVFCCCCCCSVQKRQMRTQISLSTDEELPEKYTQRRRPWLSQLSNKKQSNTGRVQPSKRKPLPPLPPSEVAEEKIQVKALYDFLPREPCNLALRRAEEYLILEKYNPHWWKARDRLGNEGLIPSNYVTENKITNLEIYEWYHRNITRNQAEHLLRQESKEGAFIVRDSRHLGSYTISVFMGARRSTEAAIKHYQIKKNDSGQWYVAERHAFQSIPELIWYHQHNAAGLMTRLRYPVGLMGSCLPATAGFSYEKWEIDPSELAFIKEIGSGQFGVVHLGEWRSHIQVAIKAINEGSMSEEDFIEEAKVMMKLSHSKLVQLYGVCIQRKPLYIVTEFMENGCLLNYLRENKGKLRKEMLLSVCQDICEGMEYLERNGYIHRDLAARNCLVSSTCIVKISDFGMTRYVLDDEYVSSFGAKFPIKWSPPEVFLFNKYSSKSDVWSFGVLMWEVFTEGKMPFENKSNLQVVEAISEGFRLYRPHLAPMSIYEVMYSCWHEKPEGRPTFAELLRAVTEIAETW
Chain of CSNK1D (human) (P48730 whole entry, looked up): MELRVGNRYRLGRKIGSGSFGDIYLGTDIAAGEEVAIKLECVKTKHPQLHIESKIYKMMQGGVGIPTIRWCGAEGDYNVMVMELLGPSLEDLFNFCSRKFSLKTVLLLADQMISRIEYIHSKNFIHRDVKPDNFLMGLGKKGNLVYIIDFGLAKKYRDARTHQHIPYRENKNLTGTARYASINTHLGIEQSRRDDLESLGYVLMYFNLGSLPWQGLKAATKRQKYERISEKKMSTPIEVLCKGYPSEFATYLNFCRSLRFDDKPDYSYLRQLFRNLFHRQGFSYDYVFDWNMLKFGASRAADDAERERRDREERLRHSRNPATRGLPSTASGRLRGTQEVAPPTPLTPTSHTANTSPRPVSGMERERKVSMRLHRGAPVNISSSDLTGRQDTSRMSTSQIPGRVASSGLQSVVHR
Chain of LYN (human) (P07948 whole entry, looked up): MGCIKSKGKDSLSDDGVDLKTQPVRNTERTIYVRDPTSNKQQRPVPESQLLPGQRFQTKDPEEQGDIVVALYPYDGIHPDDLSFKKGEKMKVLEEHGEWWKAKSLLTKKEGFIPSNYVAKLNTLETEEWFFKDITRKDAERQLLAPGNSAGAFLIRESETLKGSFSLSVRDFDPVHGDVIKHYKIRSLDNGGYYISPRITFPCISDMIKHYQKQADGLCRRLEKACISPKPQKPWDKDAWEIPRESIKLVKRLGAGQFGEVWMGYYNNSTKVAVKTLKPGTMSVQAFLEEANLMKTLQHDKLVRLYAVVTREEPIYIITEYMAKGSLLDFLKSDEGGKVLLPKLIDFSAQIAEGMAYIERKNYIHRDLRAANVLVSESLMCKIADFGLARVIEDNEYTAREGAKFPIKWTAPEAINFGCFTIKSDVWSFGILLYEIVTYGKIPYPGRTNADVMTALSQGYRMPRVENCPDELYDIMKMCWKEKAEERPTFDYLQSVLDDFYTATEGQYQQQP
Chain of RPS6KA4 KD1 KD2 (human) (O75676 whole entry, looked up): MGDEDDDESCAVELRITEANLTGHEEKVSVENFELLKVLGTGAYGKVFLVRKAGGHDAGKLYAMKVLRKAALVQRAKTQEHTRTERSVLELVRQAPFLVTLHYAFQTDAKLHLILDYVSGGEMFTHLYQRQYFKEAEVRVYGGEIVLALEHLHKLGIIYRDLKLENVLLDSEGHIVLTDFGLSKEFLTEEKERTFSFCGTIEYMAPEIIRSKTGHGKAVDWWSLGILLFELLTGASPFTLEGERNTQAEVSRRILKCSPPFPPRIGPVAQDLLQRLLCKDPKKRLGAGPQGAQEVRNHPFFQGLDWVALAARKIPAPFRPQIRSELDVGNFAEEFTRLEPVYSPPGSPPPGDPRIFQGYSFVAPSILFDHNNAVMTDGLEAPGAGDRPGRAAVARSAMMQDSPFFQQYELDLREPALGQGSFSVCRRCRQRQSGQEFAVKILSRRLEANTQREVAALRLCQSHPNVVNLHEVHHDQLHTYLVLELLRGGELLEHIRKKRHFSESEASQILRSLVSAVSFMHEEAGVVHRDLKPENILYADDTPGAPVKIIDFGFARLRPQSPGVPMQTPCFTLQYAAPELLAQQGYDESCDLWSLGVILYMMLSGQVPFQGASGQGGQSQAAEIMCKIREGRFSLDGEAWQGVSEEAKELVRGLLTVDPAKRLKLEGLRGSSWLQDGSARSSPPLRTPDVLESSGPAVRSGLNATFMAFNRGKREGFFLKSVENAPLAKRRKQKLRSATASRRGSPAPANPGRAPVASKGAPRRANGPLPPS
Chain of FLT4 (human) (P35916 whole entry, looked up): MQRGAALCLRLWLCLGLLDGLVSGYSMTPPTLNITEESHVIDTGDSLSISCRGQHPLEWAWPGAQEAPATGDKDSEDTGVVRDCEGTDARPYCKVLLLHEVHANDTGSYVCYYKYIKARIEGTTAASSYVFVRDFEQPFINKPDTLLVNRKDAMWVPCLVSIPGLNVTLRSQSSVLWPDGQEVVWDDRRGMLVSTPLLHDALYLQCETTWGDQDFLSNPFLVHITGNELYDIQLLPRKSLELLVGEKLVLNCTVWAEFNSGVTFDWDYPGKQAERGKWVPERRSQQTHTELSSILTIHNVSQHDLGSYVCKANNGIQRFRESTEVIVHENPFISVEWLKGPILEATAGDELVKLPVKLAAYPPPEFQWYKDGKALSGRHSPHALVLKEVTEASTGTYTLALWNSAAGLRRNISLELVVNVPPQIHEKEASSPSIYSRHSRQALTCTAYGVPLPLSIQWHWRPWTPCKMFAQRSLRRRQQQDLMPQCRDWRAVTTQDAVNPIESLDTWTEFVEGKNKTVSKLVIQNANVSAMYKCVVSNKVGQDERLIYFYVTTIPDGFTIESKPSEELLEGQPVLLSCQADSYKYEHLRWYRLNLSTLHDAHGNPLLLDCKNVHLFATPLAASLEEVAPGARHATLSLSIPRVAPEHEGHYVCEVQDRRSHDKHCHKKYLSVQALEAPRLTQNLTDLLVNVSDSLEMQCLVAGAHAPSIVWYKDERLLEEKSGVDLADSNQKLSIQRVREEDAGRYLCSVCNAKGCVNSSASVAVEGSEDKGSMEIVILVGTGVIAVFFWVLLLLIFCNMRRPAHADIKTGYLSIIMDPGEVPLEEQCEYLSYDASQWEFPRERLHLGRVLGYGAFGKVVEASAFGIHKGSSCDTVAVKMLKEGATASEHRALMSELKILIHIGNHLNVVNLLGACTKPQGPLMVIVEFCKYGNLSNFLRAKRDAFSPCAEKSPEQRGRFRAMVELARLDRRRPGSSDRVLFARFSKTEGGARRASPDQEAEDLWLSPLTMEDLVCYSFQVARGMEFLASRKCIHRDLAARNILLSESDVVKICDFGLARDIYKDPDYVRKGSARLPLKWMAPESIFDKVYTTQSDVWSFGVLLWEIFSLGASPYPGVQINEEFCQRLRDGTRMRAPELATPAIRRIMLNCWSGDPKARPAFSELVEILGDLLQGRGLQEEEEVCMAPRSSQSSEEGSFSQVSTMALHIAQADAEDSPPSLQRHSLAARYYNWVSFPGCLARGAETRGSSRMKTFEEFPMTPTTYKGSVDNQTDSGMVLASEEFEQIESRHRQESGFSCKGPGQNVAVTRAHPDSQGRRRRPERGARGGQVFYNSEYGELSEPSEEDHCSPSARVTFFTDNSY
Chain of IKBKE (human) (Q14164 whole entry, looked up): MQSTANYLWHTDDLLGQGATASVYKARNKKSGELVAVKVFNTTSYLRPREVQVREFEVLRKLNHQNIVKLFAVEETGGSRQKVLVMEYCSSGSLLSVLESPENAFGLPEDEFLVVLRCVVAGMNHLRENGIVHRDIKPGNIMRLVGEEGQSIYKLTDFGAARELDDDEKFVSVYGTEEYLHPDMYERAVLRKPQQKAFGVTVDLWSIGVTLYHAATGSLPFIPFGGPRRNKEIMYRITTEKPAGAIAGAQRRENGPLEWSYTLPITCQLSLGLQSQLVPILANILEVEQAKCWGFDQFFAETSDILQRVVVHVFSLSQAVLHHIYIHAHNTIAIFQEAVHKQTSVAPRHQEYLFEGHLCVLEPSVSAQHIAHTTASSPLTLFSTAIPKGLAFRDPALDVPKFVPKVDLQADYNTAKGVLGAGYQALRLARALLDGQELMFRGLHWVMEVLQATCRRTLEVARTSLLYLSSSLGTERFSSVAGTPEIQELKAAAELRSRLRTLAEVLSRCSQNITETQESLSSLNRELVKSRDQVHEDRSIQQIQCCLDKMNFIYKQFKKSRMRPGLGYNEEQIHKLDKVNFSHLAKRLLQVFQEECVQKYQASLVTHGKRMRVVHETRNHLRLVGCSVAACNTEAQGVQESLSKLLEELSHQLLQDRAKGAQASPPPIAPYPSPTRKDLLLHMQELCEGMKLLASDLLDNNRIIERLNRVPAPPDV
Chain of CSNK2A1 (human) (P68400 whole entry, looked up): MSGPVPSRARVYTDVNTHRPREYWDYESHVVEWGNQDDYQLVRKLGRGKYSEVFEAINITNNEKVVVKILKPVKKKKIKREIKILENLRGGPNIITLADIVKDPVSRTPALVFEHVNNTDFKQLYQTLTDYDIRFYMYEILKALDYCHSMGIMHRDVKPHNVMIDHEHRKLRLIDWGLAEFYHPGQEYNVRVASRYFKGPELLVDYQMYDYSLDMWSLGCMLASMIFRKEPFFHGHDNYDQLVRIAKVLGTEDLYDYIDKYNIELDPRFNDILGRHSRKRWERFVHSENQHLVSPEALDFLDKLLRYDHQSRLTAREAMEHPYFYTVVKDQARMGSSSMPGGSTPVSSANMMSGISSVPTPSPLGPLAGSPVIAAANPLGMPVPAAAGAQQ
Chain of CSNK2A2 (human) (P19784 whole entry, looked up): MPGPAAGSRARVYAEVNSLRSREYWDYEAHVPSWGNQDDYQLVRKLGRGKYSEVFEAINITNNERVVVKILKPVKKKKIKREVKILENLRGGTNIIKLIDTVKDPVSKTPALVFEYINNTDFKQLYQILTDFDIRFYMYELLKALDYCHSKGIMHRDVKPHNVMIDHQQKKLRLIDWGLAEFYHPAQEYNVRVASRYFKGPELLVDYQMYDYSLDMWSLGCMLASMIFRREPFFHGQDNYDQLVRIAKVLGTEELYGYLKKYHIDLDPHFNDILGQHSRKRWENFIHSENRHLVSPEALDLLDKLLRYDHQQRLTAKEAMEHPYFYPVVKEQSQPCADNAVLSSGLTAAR

For `CNC(=O)c1cc(Oc2ccc(NC(=O)Nc3ccc(Cl)c(C(F)(F)F)c3)cc2)ccn1`, the inhibition (CDK3 (human); compound 0.02 µM) was -4.1%, the inhibition (CDK3 (human); compound 0.2 µM) was -2.4% and the inhibition (CDK6 (human); compound 0.02 µM) was 0.1%. It also gave an inhibition (CDK6 (human); compound 0.2 µM) of 2%, an inhibition (CLK2 (human); compound 0.02 µM) of -0.7% and an inhibition (CLK2 (human); compound 0.2 µM) of -2.1%. The inhibition (CSNK1D (human); compound 0.02 µM) was -2.4% and -2.9%, the inhibition (CSNK1D (human); compound 0.2 µM) was -3.6% and the inhibition (CSNK1G2 (human); compound 0.02 µM) was -18.7%. For the same compound, the inhibition (CSNK1G2 (human); compound 0.2 µM) was -0.7%, the inhibition (CSNK2A1 (human); compound 0.02 µM) was -2% and the inhibition (CSNK2A1 (human); compound 0.2 µM) was 0.3%. It also gave an inhibition (CSNK2A2 (human); compound 0.02 µM) of -3.5%, an inhibition (CSNK2A2 (human); compound 0.2 µM) of 0.9% and an inhibition (DCLK2 (human); compound 0.02 µM) of -2.7%. The inhibition (DCLK2 (human); compound 0.2 µM) was -1%, the inhibition (EPHA7 (human); compound 0.02 µM) was 2% and the inhibition (EPHA7 (human); compound 0.2 µM) was 26.5%. It also gave an inhibition (FLT4 (human); compound 0.02 µM) of 61.6%, an inhibition (FLT4 (human); compound 0.2 µM) of 98.5% and an inhibition (HIPK1 (human); compound 0.02 µM) of -1.4%. The inhibition (HIPK1 (human); compound 0.2 µM) was 3.9%, the inhibition (HIPK4 (human); compound 0.02 µM) was 84% and the inhibition (HIPK4 (human); compound 0.2 µM) was 98.4%. For the same compound, the inhibition (IKBKE (human); compound 0.02 µM) was -4.5%, the inhibition (IKBKE (human); compound 0.2 µM) was -4.7% and the inhibition (JAK2 JH1 JH2 (human); compound 0.02 µM) was -3.6%. The inhibition (JAK2 JH1 JH2 (human); compound 0.2 µM) was 8.1%, the inhibition (LTK (human); compound 0.02 µM) was -2.2% and the inhibition (LTK (human); compound 0.2 µM) was 7.4%. The inhibition (LYN (human); compound 0.02 µM) was -5% and -0.3%, the inhibition (LYN (human); compound 0.2 µM) was 35.2% and 36.9% and the inhibition (MUSK (human); compound 0.02 µM) was 24.4%. For the same compound, the inhibition (MUSK (human); compound 0.2 µM) was 73.9%, the inhibition (NEK2 (human); compound 0.02 µM) was -2.3% and the inhibition (NEK2 (human); compound 0.2 µM) was 8.8%. For the same compound, the inhibition (NEK4 (human); compound 0.02 µM) was -3%, the inhibition (NEK4 (human); compound 0.2 µM) was -0.8% and the inhibition (NEK9 (human); compound 0.02 µM) was -3.7%. For the same compound, the inhibition (NEK9 (human); compound 0.2 µM) was -5.9%, the inhibition (PBK (human); compound 0.02 µM) was -6% and the inhibition (PBK (human); compound 0.2 µM) was -5.2%. For the same compound, the inhibition (PRKCZ (human); compound 0.02 µM) was 0%, the inhibition (PRKCZ (human); compound 0.2 µM) was 11.3% and the inhibition (PTK2 (human); compound 0.02 µM) was -4.6%. The inhibition (PTK2 (human); compound 0.2 µM) was -3.4%, the inhibition (PTK6 (human); compound 0.02 µM) was -0.9% and the inhibition (PTK6 (human); compound 0.2 µM) was -0.8%. It also gave an inhibition (RPS6KA4 KD1 KD2 (human); compound 0.02 µM) of -1.1%, an inhibition (RPS6KA4 KD1 KD2 (human); compound 0.2 µM) of 2.6% and an inhibition (RPS6KA5 KD1 KD2 (human); compound 0.02 µM) of -2.5%. The inhibition (RPS6KA5 KD1 KD2 (human); compound 0.2 µM) was 0.1%, the inhibition (SGK3 (human); compound 0.02 µM) was 0.8% and the inhibition (SGK3 (human); compound 0.2 µM) was 10.7%. It also gave an inhibition (SIK2 (human); compound 0.02 µM) of -3.8%, an inhibition (SIK2 (human); compound 0.2 µM) of 3% and an inhibition (SYK (human); compound 0.02 µM) of -7.3%. It also gave an inhibition (SYK (human); compound 0.2 µM) of -11.1%, an inhibition (TNK2 (human); compound 0.02 µM) of -5% and an inhibition (TNK2 (human); compound 0.2 µM) of -3.2%. The inhibition (TXK (human); compound 0.02 µM) was -6.1% and the inhibition (TXK (human); compound 0.2 µM) was 5.8%.
Work on `CCN(CC)CCNC(=O)c1c(C)[nH]c(/C=C2\C(=O)Nc3ccc(F)cc32)c1C` yielded an inhibition (CDK3 (human); compound 0.2 µM) of 0.3%, an inhibition (CDK3 (human); compound 4.0 µM) of 36.6% and an inhibition (CDK6 (human); compound 0.2 µM) of 23.8%. It also gave an inhibition (CDK6 (human); compound 4.0 µM) of 89.2%, an inhibition (CLK2 (human); compound 0.2 µM) of 78.3% and an inhibition (CLK2 (human); compound 4.0 µM) of 97.2%. The inhibition (CSF1R (human); compound 0.2 µM) was 67.9%, the inhibition (CSF1R (human); compound 4.0 µM) was 98.9% and the inhibition (CSNK1D (human); compound 4.0 µM) was 86.1% and 97.8%. The inhibition (CSNK2A1 (human); compound 0.2 µM) was -0.4%, the inhibition (CSNK2A1 (human); compound 4.0 µM) was 19.9% and the inhibition (CSNK2A2 (human); compound 0.2 µM) was 4.5%. For the same compound, the inhibition (CSNK2A2 (human); compound 4.0 µM) was 41.2%, the inhibition (DCLK2 (human); compound 0.2 µM) was 5.2% and the inhibition (DCLK2 (human); compound 4.0 µM) was 49.8%. The inhibition (DDR2 (human); compound 0.2 µM) was 55.8%, the inhibition (DDR2 (human); compound 4.0 µM) was 98% and the inhibition (EPHA7 (human); compound 0.2 µM) was 19.8%. The inhibition (EPHA7 (human); compound 4.0 µM) was 82%, the inhibition (FLT4 (human); compound 0.2 µM) was 88.2% and the inhibition (FLT4 (human); compound 4.0 µM) was 101%. The inhibition (HIPK1 (human); compound 0.2 µM) was 51.3%, the inhibition (HIPK1 (human); compound 4.0 µM) was 94.4% and the inhibition (HIPK4 (human); compound 0.2 µM) was 67.4%. The inhibition (HIPK4 (human); compound 4.0 µM) was 96.8%, the inhibition (IKBKE (human); compound 0.2 µM) was 11.9% and the inhibition (IKBKE (human); compound 4.0 µM) was 71.8%. It also gave an inhibition (JAK2 JH1 JH2 (human); compound 0.2 µM) of 36.5%, an inhibition (JAK2 JH1 JH2 (human); compound 4.0 µM) of 94.6% and an inhibition (LTK (human); compound 0.2 µM) of 69%. For the same compound, the inhibition (LYN (human); compound 0.2 µM) was 67.3% and 70.3%, the inhibition (LYN (human); compound 4.0 µM) was 98.3% and 99.7% and the inhibition (MUSK (human); compound 0.2 µM) was 94.8%. It also gave an inhibition (MUSK (human); compound 4.0 µM) of 101%, an inhibition (NEK2 (human); compound 0.2 µM) of 8.3% and an inhibition (NEK2 (human); compound 4.0 µM) of 49.2%. It also gave an inhibition (NEK4 (human); compound 0.2 µM) of -2.5%, an inhibition (NEK4 (human); compound 4.0 µM) of 8.9% and an inhibition (NEK9 (human); compound 0.2 µM) of 0%. It also gave an inhibition (NEK9 (human); compound 4.0 µM) of 20.7%, an inhibition (PBK (human); compound 0.2 µM) of -6.1% and an inhibition (PBK (human); compound 4.0 µM) of -7.6%. It also gave an inhibition (PRKCZ (human); compound 0.2 µM) of -1.5%, an inhibition (PRKCZ (human); compound 4.0 µM) of 13.5% and an inhibition (PTK6 (human); compound 0.2 µM) of 17.6%. For the same compound, the inhibition (PTK6 (human); compound 4.0 µM) was 82.3%, the inhibition (RPS6KA4 KD1 KD2 (human); compound 0.2 µM) was 15.5% and the inhibition (RPS6KA4 KD1 KD2 (human); compound 4.0 µM) was 73.7%. The inhibition (RPS6KA5 KD1 KD2 (human); compound 0.2 µM) was 18.2%, the inhibition (RPS6KA5 KD1 KD2 (human); compound 4.0 µM) was 73.3% and the inhibition (SGK3 (human); compound 4.0 µM) was 20.6%. For the same compound, the inhibition (SIK2 (human); compound 0.2 µM) was 46.8%, the inhibition (SIK2 (human); compound 4.0 µM) was 94.5% and the inhibition (TNK2 (human); compound 0.2 µM) was 13.6%. It also gave an inhibition (TNK2 (human); compound 4.0 µM) of 76.8%, an inhibition (TXK (human); compound 0.2 µM) of 6.1% and an inhibition (TXK (human); compound 4.0 µM) of 43%.
